Results on 23 compounds are retold here after US20250177324A1, “A[…], AND PREPARATION METHOD THEREFOR AND USE THEREOF” (SHANGHAI ZHIGEN PHARMACEUTICAL & TECHNOLOGY CO. LTD., priority 2022, published 2025).

Counter-ions that a name gives are not always drawn.

The series is described as follows: Solid-state chemical stability under different storage conditions (liquid chromatography). It counts as physicochemical. The settings on record: for Stability of solid state compound, 0 Days (%): liquid chromatography. Here is the method: The HPLC conditions were as follows:
Configuration of test solution: appropriate amount of sample was dissolved and diluted with a diluent (0.03 mol/L phosphate buffer-acetonitrile (80:20)) to make 1 mg/mL solution.
Chromatographic conditions: according to the high performance liquid chromatography (Chinese Pharmacopoeia 2020 version of the four general 0512) test, using octadecyl-bonded silica gel (Agilent Eclipse Plus C18, 4.6 mm*250 mm, 5.0 μm, P/N for 959990-902 or a chromatographic column with equivalent performance) as a filler; 0.03 mol/L phosphate buffer (4.08 g of potassium dihydrogen phosphate was dissolved in 1000 ml of water and shaken well) was used as mobile phase A and acetonitrile as mobile phase B at a flow rate of 1 ml/min, the column temperature was 30° C., the detection wavelength was 220 nm, the injection volume was 10 ul, and the sample plate was controlled to 8° C. and running for 65 min. Gradient elution was performed according to the following table: […]
Configuration of test solution: appropriate amount of the product was dissolved and diluted with a diluent (0.1% phosphoric acid-acetonitrile (80:20)) to make 1 mg/mL solution.
Chromatographic conditions: according to the high performance liquid chromatography (Chinese Pharmacopoeia 2020 version of the four general 0512) test, using octadecyl bonded silica gel (Agilent Eclipse Plus C18, 4.6 mm*250 mm, 5.0 μm, P/N 959990-902 or a chromatographic column with equivalent performance) as a filler; 0.1% phosphate buffer (1 ml of phosphoric acid in 1000 ml of water and shake well) as mobile phase A, acetonitrile as mobile phase B, flow rate of 1 ml/min, column temperature of 30° C., detection wavelength of 220 nm, injection volume of 10 ul, running for 48 minutes. Gradient elution was performed according to the following table: […]

As for `Cl.N[C@]1(c2ccc(C(F)(F)F)cc2)CCC[C@H](O)C1=O` [Comparative compound 2, reference compound], for the setting “40° C., 75% RH”, the “Stability of solid state compound, 0 Days (%)” value came out at 99.48%; the “Stability of solid state compound, 10 Days (%)” value (“Stability … 10 Days (%)” below) worked out at 97.11%; the “Stability of solid state compound, 30 Days (%)” value (“Stability … 30 Days (%)” for short) turned out to be 94.26%. Moreover, under “40° C., 75% RH, 60 days”, the “Stability of solid state compound, 60 Days (%)” value is recorded as 89.97%.
Regarding `Cl.N#Cc1cccc(C2(N)CCCC(O)C2=O)c1` (centres unmarked) [Comparative compound 7, reference compound], for the setting “40° C., 75% RH”, the “Stability of solid state compound, 0 Days (%)” value is listed as 98.1% and the “Stability of solid state compound, 5 Days (%)” value (from here on “Stability … 5 Days (%)”) was 87.5%.
For `CN[C@@]1(c2ccc(C(F)(F)F)cc2)CCC[C@@H](O)C1=O.Cl` [Comparative compound 8, reference compound], under “40° C., 75% RH”, the “Stability of solid state compound, 0 Days (%)” value amounted to 98.4% and the “Stability … 5 Days (%)” value is given as 73.0%.
In the case of `CCN[C@@]1(c2ccc(C(F)(F)F)cc2)CCC[C@@H](O)C1=O.Cl` [Comparative compound 9, reference compound], under “25° C., 60% RH”, the “Stability of solid state compound, 0 Days (%)” value was 98.2%; the “Stability … 10 Days (%)” value stood at 96.8%; the “Stability … 30 Days (%)” value was found to be 61%.
For the compound `CC(=O)N[C@@]1(c2ccc(C(F)(F)F)cc2)CCC[C@@H](O)C1=O` [Comparative compound 10, reference compound], under “25° C., 60% RH”, the “Stability of solid state compound, 0 Days (%)” value is listed as 99.77%; the “Stability … 10 Days (%)” value amounted to 99.69%; the “Stability … 30 Days (%)” value worked out at 97.51%.
For the compound `CNC1(c2cccc(OC(F)(F)F)c2)CCCC(O)C1=O.Cl` (centres unmarked) [Comparative compound 11, reference compound], for the setting “40° C., 75% RH”, the “Stability of solid state compound, 0 Days (%)” value turned out to be 98.15%; the “Stability … 5 Days (%)” value amounted to 87.8%; the “Stability … 10 Days (%)” value is given as 75.44%.
For the compound `Cl.NC1(c2cccc(F)c2F)CCCC(O)C1=O` (centres unmarked) [Comparative compound 12, reference compound], where the note is “40° C., 75% RH”, the “Stability of solid state compound, 0 Days (%)” value came out at 97.16% and the “Stability … 30 Days (%)” value came out at 94.59%.
Regarding `Cl.NC1(c2c(F)cc(F)cc2F)CCCC(O)C1=O` (centres unmarked) [Comparative compound 13, reference compound], where the note is “40° C., 75% RH”, the “Stability of solid state compound, 0 Days (%)” value is reported as 98.31%; the “Stability … 10 Days (%)” value is given as 97.05%; the “Stability … 30 Days (%)” value was 96.04%.
Turning to `Cl.NC1(c2cccc(OC(F)(F)F)c2F)CCCC(O)C1=O` (centres unmarked) [Comparative compound 14, reference compound], for the setting “40° C., 75% RH”, the “Stability of solid state compound, 0 Days (%)” value is listed as 98.58% and the “Stability … 30 Days (%)” value was found to be 93.96%.
On to `CC(=O)N[C@@]1(c2ccc(C(F)(F)F)cc2)CCC[C@](C)(O)C1=O` [Compound 37, N-((1R,3S)-3-hydroxy-3-methyl-2-oxo-1-(4-(trifluoromethyl)phenyl)cyclohexyl)acetamide], for which, for the setting “25° C., 60% RH”, the “Stability of solid state compound, 0 Days (%)” value turned out to be 99.69%; the “Stability … 10 Days (%)” value stood at 99.65%; the “Stability … 30 Days (%)” value was 99.69%.
`CC1(O)CCCC(N)(c2cccc(OC(F)(F)F)c2F)C1=O` (centres unmarked) [Compound 43, 2-amino-2-(2-fluoro-3-(trifluoromethoxy)phenyl)-6-hydroxy-6-methylcyclohexan-1-one hydrochloride]: for the setting “40° C., 75% RH”, the “Stability of solid state compound, 0 Days (%)” value worked out at 98.73% and the “Stability … 30 Days (%)” value is reported as 98.75%.
As to `CC1(O)CCCC(N)(c2c(F)cc(F)cc2F)C1=O` (centres unmarked) [Compound 44, 2-amino-6-hydroxy-6-methyl-2-(2,4,6-trifluorotoluene)cyclohexan-1-one hydrochloride], where the note is “40° C., 75% RH”, the “Stability of solid state compound, 0 Days (%)” value worked out at 98.45%; the “Stability … 5 Days (%)” value turned out to be 98.53%; the “Stability … 30 Days (%)” value was 98.35%.
With `CC1(O)CCCC(N)(c2cccc(C#N)c2)C1=O.Cl` (centres unmarked) [Compound 47, 3-(1-amino-3-hydroxy-3-methyl-2-oxocyclohexyl)benzonitrile hydrochloride], under “40° C., 75% RH”, the “Stability of solid state compound, 0 Days (%)” value amounted to 98.89%; the “Stability … 5 Days (%)” value worked out at 98.86%; the “Stability … 30 Days (%)” value is recorded as 98.86%.
On to `CC1(O)CCCC(N)(c2cccc(F)c2F)C1=O.Cl` (centres unmarked) [Compound 48, 2-amino-2-(2,3-difluorophenyl)-6-hydroxy-6-methylcyclohexan-1-one hydrochloride], for which, for the setting “40° C., 75% RH”, the “Stability of solid state compound, 0 Days (%)” value was 99.25%; the “Stability … 5 Days (%)” value is reported as 99.28%; the “Stability … 10 Days (%)” value is 99.28%; the “Stability … 30 Days (%)” value is 99.17%.
As for `CNC1(c2cccc(OC(F)(F)F)c2F)CCCC(C)(O)C1=O.Cl` (centres unmarked) [Compound 56, 2-(2-fluoro-3-(trifluoromethoxy)phenyl)-6-hydroxy-6-methyl-2-(methylamino)cyclohexan-1-one hydrochloride], under “40° C., 75% RH”, the “Stability of solid state compound, 0 Days (%)” value turned out to be 99.61% and the “Stability … 30 Days (%)” value turned out to be 99.50%.
For the compound `CNC1(c2c(F)cc(F)cc2F)CCCC(C)(O)C1=O.Cl` (centres unmarked) [Compound 58, 2-hydroxy-2-methyl-6-methylamino-6-(2,4,6-trifluorotoluene)cyclohexan-1-one hydrochloride], for the setting “40° C., 75% RH”, the “Stability of solid state compound, 0 Days (%)” value stood at 99.34%; the “Stability … 10 Days (%)” value is given as 99.12%; the “Stability … 30 Days (%)” value was found to be 99.14%.
For the compound `CNC1(c2cccc(C#N)c2)CCCC(C)(O)C1=O.Cl` (centres unmarked) [Compound 63, 3-(3-hydroxy-3-methyl-1-methylamino-2-oxocyclohexyl)benzonitrile hydrochloride], for the setting “40° C., 75% RH”, the “Stability of solid state compound, 0 Days (%)” value is given as 99.67%; the “Stability … 5 Days (%)” value stood at 99.66%; the “Stability … 10 Days (%)” value is 99.66%; the “Stability … 30 Days (%)” value is given as 99.66%.
`CN[C@@]1(c2cccc(C#N)c2)CCC[C@](C)(O)C1=O.Cl` [Compound 64, 3-((1R, 3S)-3-hydroxy-3-methyl-1-methylamino-2-oxocyclohexyl)benzonitrile hydrochloride]: where the note is “40° C., 75% RH”, the “Stability of solid state compound, 0 Days (%)” value amounted to 99.88%; the “Stability … 5 Days (%)” value worked out at 99.88%; the “Stability … 10 Days (%)” value was found to be 99.89%; the “Stability … 30 Days (%)” value is 99.85%.
Take `CNC1(c2cccc(OC(F)(F)F)c2)CCCC(C)(O)C1=O.Cl` (centres unmarked) [Compound 67, 2-hydroxy-2-methyl-6-methylamino-6-(3-(trifluoromethoxy)phenyl)cyclohexan-1-one hydrochloride]: under “40° C., 75% RH”, the “Stability of solid state compound, 0 Days (%)” value was determined as 99.82%; the “Stability … 10 Days (%)” value was 99.73%; the “Stability … 30 Days (%)” value stood at 99.57%.
Consider `CN[C@@]1(c2ccccc2Cl)CCC[C@](C)(O)C1=O.Cl` [Compound 69, (2R,6S)-2-(2-chlorophenyl)-6-hydroxy-6-methyl-2-methylaminocyclohexan-1-one hydrochloride], for which, for the setting “40° C., 75% RH”, the “Stability of solid state compound, 0 Days (%)” value is on record as 98.36%; the “Stability … 10 Days (%)” value is reported as 98.43%; the “Stability … 30 Days (%)” value was determined as 98.34%.
Regarding `CN[C@@]1(c2ccccc2Cl)CCC[C@@](C)(O)C1=O.Cl` [Compound 70, (2R,6R)-2-(2-chlorophenyl)-6-hydroxy-6-methyl-2-methylaminocyclohexan-1-one hydrochloride], under “40° C., 75% RH”, the “Stability of solid state compound, 0 Days (%)” value came to 97.84%; the “Stability … 10 Days (%)” value was 97.84%; the “Stability … 30 Days (%)” value was found to be 97.82%.
For `CN(C)[C@@]1(c2ccc(C(F)(F)F)cc2)CCC[C@@](C)(O)C1=O.Cl` [Compound 72, (2R,6R)-2-dimethylamino-6-hydroxy-6-methyl-2-(4-(trifluoromethyl)phenyl)cyclohexan-1-one hydrochloride], under “40° C., 75% RH”, the “Stability of solid state compound, 0 Days (%)” value came to 99.69%; the “Stability … 5 Days (%)” value amounted to 99.66%; the “Stability … 10 Days (%)” value stood at 99.62%; the “Stability … 30 Days (%)” value was determined as 99.61%.
For the compound `CN[C@]1(c2ccc(C(F)(F)F)cc2)CCC[C@@](C)(O)C1=O.Cl` [Compound 75, (2R,6S)-2-hydroxy-2-methyl-6-methylamino-6-(4-(trifluoromethyl)phenyl)cyclohexan-1-one hydrochloride], where the note is “40° C., 75% RH”, the “Stability of solid state compound, 0 Days (%)” value is reported as 99.85%; the “Stability … 10 Days (%)” value turned out to be 99.78%; the “Stability … 30 Days (%)” value was determined as 99.77%.
